The text below walks through data of US11993563B2, “Solid compositions of cocrystals of cannabinoids” (priority 2018, dated 2024).

The conditions of data set [1]: in tablet. How it is done:
(§1) X-ray power Diffraction (XRPD) measurements were performed at ambient conditions on a PANalytical X'Pert PRO θ-θ diffractometer of 240 mm of radius in reflection geometry, equipped with Cu Kα radiation and a PIXcel detector, operated at 45 kV and 40 mA. Each sample was mounted on a zero-background silicon holder and allowed to spin at 0.25 rev/s during the data collection.

Data set [2] in a line: Stability of the cocrystal on heating (DSC experiments). Type of data set: physicochemical. Here is the method: The cocrystal Form VII of the present invention may also be further characterized by DSC (differential scanning calorimetry) analysis as shown in FIG. 15. […] The cocrystal Form VII of the present invention may also be further characterized by having a melting range of about 109-120° C.
The cocrystal Form XVIII of the present invention may also be further characterized by DSC (differential scanning calorimetry) analysis as shown in FIG. 35.
The cocrystal Form XIX of the present invention may also be further characterized by DSC (differential scanning calorimetry) analysis as shown in FIG. 37.
DSC analyses were recorded with a Mettler Toledo DSC2. For cocrystals Forms […], and XI-XIX, the sample was weighed into a 40 μL aluminium crucible with a pinhole lid and was heated from 25 to 300° C. at a rate of 10° C./min, under nitrogen (50 mL/min). For cocrystals Form VII and VIII, the sample was weighed into a 40 μL aluminium crucible with a pinhole lid and was heated from 25 to 150° C. at a rate of 10° C./min, under nitrogen (50 mL/min).

For data set [3] the following is noted: open vial, accelerated stability conditions 40° C. and 75±5% relative humidity. Here is the method:
as §1
The aim of the study is to evaluate the stability of cocrystal Form I of the present invention.
Cocrystal Form I (55 mg) is stored in an open vial and exposed to accelerated stability conditions (40° C. and 75±5% relative humidity) according to ICH guidelines (Guidance for Industry Q1A(R2) Stability Testing of New Drug Substances and Products—available on the website http://www.ich.org/products/guidelines/quality/quality-single/article/stability-testing-of-new-drug-substances-and-products.html on Aug. 4, 2017).

The structures appear in SMILES notation.

Regarding `CCCCCc1cc(O)c2c(c1)OC(C)(C)[C@@H]1CCC(C)=C[C@@H]21` [Form VII, cocrystal of (−)-(6aR,10aR)-6,6,9-trimethyl-3-pentyl-6a,7,8,10a-tetrahydro-6H-benzo[c]chromen-I-ol and L-proline], the “integrity of the cocrystal after its formulation (XRPD of the tablet)” value in data set [1] is recorded as “maintained its integrity”. Further, the “remained stable after heating up to” value in data set [2] was “up to 75 °C”. As to `C=C(C)[C@@H]1CCC(C)=C[C@H]1c1c(O)cc(CCC)cc1O` [Form XIX, cocrystal wherein the cannabinoid is CBDV and L-carnitine], the “remained stable after heating up to” value in data set [2] is “up to 110 °C”. For the compound `C=C(C)[C@@H]1CCC(C)=C[C@H]1c1c(O)cc(CCCCC)cc1O` [Form I, cocrystal of CBD and L-proline], the “stability according to XRPD” value in data set [3] was “remained stable for at least three weeks”. Besides, the “integrity of the cocrystal after its formulation (XRPD of the tablet)” value in data set [1] is on record as “maintained its integrity”. Regarding `C=C(C)[C@@H]1CCC(C)=C[C@H]1c1c(O)cc(CCC)cc1O` [Form XVIII, cocrystal wherein the cannabinoid is CBDV and L-proline], the “remained stable after heating up to” value in data set [2] is “up to 90 °C”.
